Experimental data reported in publication PMC11892739, “Site-specific molecular glues for the 14-3-3/Tau pS214 protein–protein interaction via reversible covalent imine tethering” (RSC Medicinal Chemistry, 2025).

Legend:
14-3-3ζ/SOS1 peptide = target: T1, 14-3-3ζ/SOS1 peptide (Homo sapiens, UniProt P63104); experiment: FA peptide screen, 14-3-3ζ titration to client peptide and compound: SOS1; type: binding; conditions: 250 μM compound, 100 nM peptide; +1 Ala
T1 construct: made in house; host or cells: NiCo21 (DE3) E. coli
T1 sequence (P63104 whole entry, other chains not shown): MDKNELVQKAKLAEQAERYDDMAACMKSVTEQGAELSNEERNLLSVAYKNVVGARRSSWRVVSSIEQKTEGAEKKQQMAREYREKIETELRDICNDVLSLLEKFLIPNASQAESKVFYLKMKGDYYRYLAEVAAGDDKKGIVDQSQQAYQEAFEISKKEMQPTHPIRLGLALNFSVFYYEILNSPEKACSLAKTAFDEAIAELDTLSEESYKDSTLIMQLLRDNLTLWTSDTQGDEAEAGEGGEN
Procedure: (§1) Since the hub protein 14-3-3 binds to hundreds of phosphoprotein partners, selectivity of PPI stabilization is a major challenge. The interplay of chemical reactivity, and the topology and functionality of the composite binding pocket shaped by 14-3-3 and Tau potentially provide entries towards selective stabilization. […] Here, 14-3-3ζ was titrated to a constant concentration of client peptide (100 nM) and compound (250 μM) to determine the SF250μM values for the particular 14-3-3 PPI. A variety of 14-3-3 binding proteins was represented in this client panel whereby the size and hydrophobicity of the +1 amino acid were varied. […]
(§2) chromatography (HisTrap high performance cartridges, Cytiva). […] Dialyzed protein was concentrated to ∼40 mg/mL, analyzed by Q -Tof LC/MS, and aliquots were flash -frozen for storage at −80 °C. […]
(§3) 0.1% (v/v) Tween20, 0.1% (w/v) BSA). […] Measurements were performed directly after plate preparation, using a Tecan SPARK plate reader at room temperature ( λex: 485±20 nm; λem: 535±25 nm; mirror: automatic; flashes: 30; settle time: 1 ms; gain: optimal; Z -position: calculated from well). […] All data were analyzed using GraphPad Prism (10.0.1) and fitted with a four -parameter logistic model (4PL) to determine binding affinities (dissociation constant, KD). […]
(§4) Fluorescence Anisotropy – peptide screen […]

14-3-3ζ/p53 peptide = target: T2, 14-3-3ζ/p53 peptide (Homo sapiens, UniProt P63104); experiment: FA peptide screen, 14-3-3ζ titration to client peptide and compound: p53; type: binding; conditions: 250 μM compound, 100 nM peptide; +1 Glu
T2 construct: made in house; host or cells: NiCo21 (DE3) E. coli
T2 sequence (P63104 whole entry, other chains not shown): as above
Procedure: as §1, §2, §3, §4

## CCc1ccc(-c2nccn2-c2ccc(C=O)c(Br)c2)cc1 [Compound 18]
14-3-3ζ/SOS1 peptide
  stabilization of 14-3-3/SOS1 peptide (in words): minor off-target effects
14-3-3ζ/p53 peptide
  stabilization of 14-3-3/p53 peptide (in words): did not show significant stabilizing activity
